From PMC9975351 (Frontiers in Pharmacology, 2023)

Columns and labels:
[1] = tested on: other CYP isoforms (CYP1A2, 2A6, 2B6, 2C8, 2C9, 2E1); experiment: Reaction phenotyping with other recombinant CYP isoforms; assay type: in vitro ADME, human; settings: 1 µM, 50 pmol/mL of each other recombinant CYP isoform, NADPH, 60 min
Protocol: (§1) Reactions were conducted in triplicate using 0.1 M PPB (pH 7.4) in eight-well tube strips in an 8 × 12 rack. […] The mixture was pre-incubated at 37°C with shaking at approximately 100 rpm for 5 min. Reactions were initiated by the addition of the NADPH-regenerating system and quenched with 200 µL ice-cold acetonitrile containing 50 nM CBZ. The samples were centrifuged at 1,000 × g and 4°C for 20 min, and the supernatants were subjected to LC-QTOF HRMS. […] The reaction was incubated, initiated, terminated, centrifuged then analyzed using the same method described above.
(§2) Reaction phenotyping is the identification of isoforms involved in drug metabolism and is important for the decipherment of drug biotransformation pathways and understanding of possible drug-drug interactions. M6, M7, and M8 were also detected in recombinant CYP incubations.

CYP2E1 = CYP2E1 (Homo sapiens, UniProt P05181); experiment: CYP cocktail inhibition assay in pooled HLMs, CYP2E1; settings: substrate cocktail
Protocol: (§3) The drug–drug interaction potential was evaluated using a CYP cocktail assay that involved microsomal incubation and NADPH, as described elsewhere ([Lee et al., 2012]). […] The first reactions were initiated by NADPH addition, and each mixture was incubated in a shaking water bath at 37°C for 30 min. The final incubation was performed for 10 min with a total volume of 200 µL by adding substrates (tolbutamide (set B) as a CYP2C9 selective substrate, midazolam (set A) and testosterone (set B) as CYP3A4 selective substrates) and NADPH. The reaction was stopped and quenched by adding 200 µL of ice-cold acetonitrile containing 50 nM CBZ as internal standard, then centrifuged at 3,000 x g for 20 min. The supernatants were injected in LC-QTOF system. IC50 shift values were calculated as the ratio of the IC50 value obtained after pre-incubation without NADPH divided by the IC50 value obtained after 30 min incubation with NADPH.
(§4) The LC-QTOF system consisted of an Exion AD LC device (AB Sciex, Framingham, MA, United States) and a TripleTOF 6,600 + system (AB Sciex) equipped with an IonDrive Turbo V source operated in positive TOF information-dependent acquisition (IDA) MS2 scan mode. The TOF scan dwell time was 50 ms, and the 20 × IDA MS2 scan time was acquired with a 30-ms dwell time. […]

Silensome CYP2D6 = experiment: Metabolic stability in Silensome CYP2D6 (CYP2D6 contribution); assay type: in vitro ADME, human; settings: (CLint control − CLint INH)/CLint control
Protocol: (§5) Metabolic stability of GRL 0617 and formation of M1 and M3 were evaluated using Silensome control, Silensome CYP2D6 and Silensome CYP3A4 incubated with 1 or 10 µM GRL 0617 in the presence of NADPH. Other metabolites were detected less than 1% of parent. […] CYP2D6 played an exclusive role in the formation of M2, but the reactions were not saturated in the concentration range used in this study and thus, the calculated Kcat, and Km were out of the experiment condition.
(§6) In addition, the contribution of specific isoform using Silensomes were evaluated, and calculated parameters were shown in Supplemental Figure S4 and Table 4. […] The contribution of specific CYP 3A4 or CYP2D6 was calculated to be 79.6% or 21.8%, respectively, using equation as equation below. Calculated % CYP isoform contribution = CLintcontrol−ClintINH ⁄ CLintcontrol ([Bohnert et al., 2016]).
(§7) incubated in Silensome control, Silensome CYP2D6, and Silensome CYP3A4 with NADPH for 0, 10,
(§8) 15, 30, 45, 60, or 120 min. The remaining percentages of GRL 0617 are expressed as mean ± SD (n=3).
(§9) (1 picture or pasted object on this page, not shown here)

CYP2D6 [2] = experiment: as above; assay type: in vitro ADME, human; settings: human
Protocol: as §5, §6, §7, §8, §9

CYP2D6 [3] = target: T1, CYP2D6 (Homo sapiens, UniProt P10635); settings: pooled HLMs, substrate cocktail
Protocol: as §3, §4

CYP2A6 = target: T2, CYP2A6 (Homo sapiens, UniProt P11509); experiment: CYP cocktail inhibition assay in pooled HLMs, CYP2A6; settings: substrate cocktail
T2 sequence (P11509 1-494): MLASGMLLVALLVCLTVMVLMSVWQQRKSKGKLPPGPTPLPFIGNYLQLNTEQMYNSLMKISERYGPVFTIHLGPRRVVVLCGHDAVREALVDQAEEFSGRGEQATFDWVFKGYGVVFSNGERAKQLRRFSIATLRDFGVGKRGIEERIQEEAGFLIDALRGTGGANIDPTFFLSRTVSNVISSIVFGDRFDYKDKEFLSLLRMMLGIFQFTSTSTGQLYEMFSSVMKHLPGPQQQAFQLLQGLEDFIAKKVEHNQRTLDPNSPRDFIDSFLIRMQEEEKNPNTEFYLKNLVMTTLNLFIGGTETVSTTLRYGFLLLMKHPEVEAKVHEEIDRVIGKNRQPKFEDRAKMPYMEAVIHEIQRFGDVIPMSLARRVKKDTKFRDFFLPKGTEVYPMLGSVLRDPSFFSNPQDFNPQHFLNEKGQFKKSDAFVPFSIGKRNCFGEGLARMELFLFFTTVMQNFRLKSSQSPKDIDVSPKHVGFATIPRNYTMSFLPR
Protocol: as §3, §4

CYP3A4 = target: T3, CYP3A4 (Homo sapiens, UniProt P08684); experiment: Reaction phenotyping with recombinant CYP3A4; assay type: in vitro ADME; settings: 1 µM, 50 pmol/mL recombinant CYP3A4, NADPH, 60 min, vs control
T3 construct: purchased Cypex (Dundee, UK); host or cells: bactosomes (bacterial membranes)
Protocol: as §1, §2

CYP2D6 [4] = target: T1, CYP2D6; assay type: in vitro ADME; parameters: purchased Cypex (Dundee, UK); host or cells: bactosomes (bacterial membranes); settings: 1 µM, 50 pmol/mL recombinant CYP2D6, NADPH, 60 min, vs control
Protocol: as §1, §2

in vitro = in vitro ADME, human
Protocol: as §5, §6, §7, §8, §9

T1 sequence (P10635 whole entry): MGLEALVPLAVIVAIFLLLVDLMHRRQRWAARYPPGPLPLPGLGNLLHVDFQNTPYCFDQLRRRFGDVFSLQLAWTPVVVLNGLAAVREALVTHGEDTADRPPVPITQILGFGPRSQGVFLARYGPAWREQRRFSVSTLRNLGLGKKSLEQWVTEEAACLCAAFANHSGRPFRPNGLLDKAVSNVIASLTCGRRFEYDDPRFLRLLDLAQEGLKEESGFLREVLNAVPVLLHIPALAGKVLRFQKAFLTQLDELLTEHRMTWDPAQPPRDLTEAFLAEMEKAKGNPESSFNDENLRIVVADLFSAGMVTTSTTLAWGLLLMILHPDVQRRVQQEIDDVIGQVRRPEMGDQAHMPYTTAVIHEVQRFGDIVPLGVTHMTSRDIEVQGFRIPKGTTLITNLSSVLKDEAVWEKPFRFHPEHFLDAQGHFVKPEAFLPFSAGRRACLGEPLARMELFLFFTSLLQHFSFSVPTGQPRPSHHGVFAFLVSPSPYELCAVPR
Sequence of CYP2E1 (P05181 whole entry): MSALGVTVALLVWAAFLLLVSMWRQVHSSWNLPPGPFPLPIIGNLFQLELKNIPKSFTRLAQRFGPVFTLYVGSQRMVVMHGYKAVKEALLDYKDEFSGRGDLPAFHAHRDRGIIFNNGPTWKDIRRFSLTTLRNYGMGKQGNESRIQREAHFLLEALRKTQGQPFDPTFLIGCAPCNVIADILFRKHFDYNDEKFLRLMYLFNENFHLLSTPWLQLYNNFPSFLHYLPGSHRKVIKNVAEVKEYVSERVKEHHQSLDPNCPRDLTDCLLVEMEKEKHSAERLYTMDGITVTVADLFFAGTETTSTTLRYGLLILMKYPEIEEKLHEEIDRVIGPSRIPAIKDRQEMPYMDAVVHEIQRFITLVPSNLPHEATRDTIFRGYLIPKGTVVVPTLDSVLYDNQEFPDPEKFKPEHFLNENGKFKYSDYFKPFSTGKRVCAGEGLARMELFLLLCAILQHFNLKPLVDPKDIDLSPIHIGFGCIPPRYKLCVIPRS
T3 sequence (P08684 whole entry): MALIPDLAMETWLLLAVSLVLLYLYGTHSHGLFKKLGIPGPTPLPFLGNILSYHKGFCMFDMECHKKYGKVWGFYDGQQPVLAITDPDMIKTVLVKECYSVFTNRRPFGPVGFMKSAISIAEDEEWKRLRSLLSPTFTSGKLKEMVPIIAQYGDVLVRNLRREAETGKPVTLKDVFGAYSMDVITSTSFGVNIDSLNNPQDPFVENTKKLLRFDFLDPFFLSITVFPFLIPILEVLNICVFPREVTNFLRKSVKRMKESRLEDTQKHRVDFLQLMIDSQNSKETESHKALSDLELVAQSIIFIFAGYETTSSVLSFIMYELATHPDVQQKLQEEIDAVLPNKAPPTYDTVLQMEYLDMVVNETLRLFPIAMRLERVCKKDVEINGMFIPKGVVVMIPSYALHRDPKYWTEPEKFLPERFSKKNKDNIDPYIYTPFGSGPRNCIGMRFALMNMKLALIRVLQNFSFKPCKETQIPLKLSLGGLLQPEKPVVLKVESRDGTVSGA

Cc1ccc(N)cc1C(=O)N[C@H](C)c1cccc2ccccc12 [GRL0617, 5-amino-2-methyl-N-[(1R)-1-(1-naphthalenyl)ethyl]benzamide]
Reduction of GRL0617 level [1]: < 10%
Concentrations at which CYP2E1 was inhibited (CYP2E1): ≥ 50 µM
Contribution of CYP2D6 to metabolism (Silensome CYP2D6): 21.8%
half-life at 1 µM (CYP2D6 [2]): 22.3 min
microsomal CLint at 1 µM (CYP2D6 [2]; Silensome CYP2D6 with NADPH, read-out: Intrinsic clearance (in vitro) Clint): 31.2 µL/min/mg
Concentrations at which CYP2D6 was inhibited (CYP2D6 [3]): ≥ 50 µM
Concentrations at which CYP2A6 was inhibited (CYP2A6): ≥ 50 µM
GRL0617 level remaining (CYP3A4): 9.48% ± 1.26%
GRL0617 level remaining (CYP2D6 [4]): 71.46% ± 3.1%
Contribution (in vitro; Silensome control (reference)): 100%
half-life at 1 µM (in vitro; human, microsomes): 17.4 min
microsomal CLint (in vitro; human, microsomes, Silensome control with NADPH, read-out: Intrinsic clearance (in vitro) Clint): 39.8 µL/min/mg
